# Results as given in patent US11345681B1, “Inhibitors of fibroblast growth factor receptor kinases” (Kinnate Biopharma Inc., priority 2020, dated 2022).
# Target: Wild type FGFR2 (Homo sapiens (Human), UniProt P21802)
# Assay: FGFR2 kinase assay (fluorescence-based microfluidic mobility shift assay)
# Format: biochemical
# Conditions: wild type FGFR2 0.06 nM, 100 μM ATP, 80 minutes at room temperature; class symbols
# Sequence of Wild type FGFR2 (P21802 22-821): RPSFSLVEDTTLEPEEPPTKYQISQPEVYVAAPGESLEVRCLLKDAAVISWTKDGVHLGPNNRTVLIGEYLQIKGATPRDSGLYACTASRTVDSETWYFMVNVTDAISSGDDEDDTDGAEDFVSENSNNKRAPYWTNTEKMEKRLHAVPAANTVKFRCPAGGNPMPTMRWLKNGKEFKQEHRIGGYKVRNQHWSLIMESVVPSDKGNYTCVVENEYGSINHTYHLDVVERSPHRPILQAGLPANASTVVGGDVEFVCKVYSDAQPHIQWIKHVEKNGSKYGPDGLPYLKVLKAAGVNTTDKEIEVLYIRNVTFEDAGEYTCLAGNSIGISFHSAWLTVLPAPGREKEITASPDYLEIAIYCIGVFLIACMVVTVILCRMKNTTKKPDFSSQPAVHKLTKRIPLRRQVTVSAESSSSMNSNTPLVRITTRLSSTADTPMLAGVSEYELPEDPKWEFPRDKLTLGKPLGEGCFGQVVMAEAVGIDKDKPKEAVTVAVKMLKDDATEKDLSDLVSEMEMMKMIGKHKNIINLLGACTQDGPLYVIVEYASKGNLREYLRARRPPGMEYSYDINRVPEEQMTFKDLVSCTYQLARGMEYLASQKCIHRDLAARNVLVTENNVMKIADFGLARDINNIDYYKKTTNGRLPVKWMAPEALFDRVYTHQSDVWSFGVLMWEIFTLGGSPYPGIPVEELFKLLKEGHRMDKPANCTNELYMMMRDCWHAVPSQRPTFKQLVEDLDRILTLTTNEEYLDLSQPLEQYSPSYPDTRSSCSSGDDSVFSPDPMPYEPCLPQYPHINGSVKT
row,Structure (SMILES),IC50
1,"C=CC(=O)N1C[C@@H](n2nc(C#Cc3cc4c(cc3Cl)nc(C)n4C(F)F)c(C(N)=O)c2NC)C[C@@H]1COC [Example 95, 3-[2-[6-Chloro-3-(difluoromethyl)-2-methyl-1,3-benzodiazol-5-yl]ethynyl]-1-[(3S,5R)-5-(methoxymethyl)-1-(prop-2-enoyl)pyrrolidin-3-yl]-5-(methylamino)pyrazole-4-carboxamide]",100 to 1000 nM
2,"C=CC(=O)N1C[C@@H](n2nc(C#Cc3cc4ncc(C#N)n4cc3F)c(C(N)=O)c2NC)C[C@@H]1COC [Example 262, 3-(2-{3-Cyano-6-fluoroimidazo[1,2-a]pyridin-7-yl}ethynyl)-1-[(3S,5R)-5-(methoxymethyl)-1-(prop-2-enoyl)pyrrolidin-3-yl]-5-(methylamino)pyrazole-4-carboxamide]",≤ 100 nM
3,"C=CC(=O)N1C[C@@H](n2nc(C#Cc3ccc4c(c3)ncn4C(F)F)c(C(N)=O)c2NC)C[C@@H]1COC [Example 70, 3-[2-[1-(Difluoromethyl)-1,3-benzodiazol-5-yl]ethynyl]-1-[(3S,5R)-5-(methoxymethyl)-1-(prop-2-enoyl)pyrrolidin-3-yl]-5-(methylamino)pyrazole-4-carboxamide]",≤ 100 nM
4,"C=CC(=O)N1C[C@@H](n2nc(C#Cc3cc4nc(C)n(CC)c4cc3Cl)c(C(N)=O)c2NC)C[C@@H]1COC [Example 33, 1-((3S,5R)-1-acryloyl-5-(methoxymethyl)pyrrolidin-3-yl)-3-((6-chloro-1-ethyl-2-methyl-1H-benzo[d]imidazol-5-yl)ethynyl)-5-(methylamino)-1H-pyrazole-4-carboxamide]",≤ 100 nM
5,C=CC(=O)N1C[C@@H](n2nc(C#Cc3ccc4c(cnn4C)c3)c(C(N)=O)c2NC)C[C@@H]1COC [Example 8],≤ 100 nM
6,"C=CC(=O)N1C[C@@H](n2nc(C#Cc3c(F)cc4c(nc(C)n4CC(F)(F)F)c3F)c(C(N)=O)c2NC)C[C@@H]1COC [Example 35, 1-((3S,5R)-1-acryloyl-5-(methoxymethyl)pyrrolidin-3-yl)-3-((4,6-difluoro-2-methyl-1-(2,2,2-trifluoroethyl)-1H-benzo[d]imidazol-5-yl)ethynyl)-5-(methylamino)-1H-pyrazole-4-carboxamide]",≤ 100 nM
7,"C=CC(=O)N1C[C@@H](n2nc(C#Cc3ccc4c(C)ccnc4c3)c(C(N)=O)c2NC)C[C@@H]1COC [Example 74, 1-[(3S,5R)-5-(Methoxymethyl)-1-(prop-2-enoyl)pyrrolidin-3-yl]-5-(methylamino)-3-[2-(4-methylquinolin-7-yl)ethynyl]pyrazole-4-carboxamide]",≤ 100 nM
8,"C=CC(=O)N1C[C@@H](n2nc(C#Cc3c(F)cc4c(ncn4CC(F)(F)F)c3F)c(C(N)=O)c2NC)CC1COC (stereo in doubt) [Example 34, 1-((3S,5S)-1-acryloyl-5-(methoxymethyl)pyrrolidin-3-yl)-3-((4,6-difluoro-1-(2,2,2-trifluoroethyl)-1H-benzo[d]imidazol-5-yl)ethynyl)-5-(methylamino)-1H-pyrazole-4-carboxamide]",≤ 100 nM
9,"C=CC(=O)N1C[C@@H](n2nc(C#Cc3c(F)c(F)c4c(nc(C)n4C)c3F)c(C(N)=O)c2NC)C[C@@H]1COC [Example 149, 1-[(3S,5R)-5-(Methoxymethyl)-1-(prop-2-enoyl)pyrrolidin-3-yl]-5-(methylamino)-3-[2-(4,6,7-trifluoro-1,2-dimethyl-1,3-benzodiazol-5-yl)ethynyl]pyrazole-4-carboxamide]",≤ 100 nM
10,"C=CC(=O)N1C[C@@H](n2nc(C#Cc3ccn4ncnc4c3)c(C(N)=O)c2NC)C[C@@H]1COC [Example 107, 1-[(3S,5R)-5-(Methoxymethyl)-1-(prop-2-enoyl)pyrrolidin-3-yl]-5-(methylamino)-3-(2-[[1,2,4]triazolo[1,5-c]pyridin-7-yl]ethynyl)pyrazole-4-carboxamide]",100 to 1000 nM
11,"C=CC(=O)N1C[C@@H](n2nc(C#Cc3c(F)c(F)c4c(ncn4CC)c3F)c(C(N)=O)c2NC)C[C@@H]1COC [Example 157, 3-[2-(1-Ethyl-4,6,7-trifluoro-1,3-benzodiazol-5-yl)ethynyl]-1-[(3S,5R)-5-(methoxymethyl)-1-(prop-2-enoyl)pyrrolidin-3-yl]-5-(methylamino)pyrazole-4-carboxamide]",≤ 100 nM

# The next lines start with the values.
row,IC50,Structure (SMILES)
1,≤ 100 nM,"C=CC(=O)N1C[C@@H](n2nc(C#Cc3cc4ncn(CC)c4c(F)c3F)c(C(N)=O)c2NC)C[C@@H]1COC [Example 125, 3-[2-(1-Ethyl-6,7-difluoro-1,3-benzodiazol-5-yl)ethynyl]-1-[(3S,5R)-5-(methoxymethyl)-1-(prop-2-enoyl)pyrrolidin-3-yl]-5-(methylamino)pyrazole-4-carboxamide]"
2,≤ 100 nM,"C=CC(=O)N1C[C@@H](n2nc(C#Cc3cc4nc(C)n(C5CC5)c4cc3F)c(C(N)=O)c2NCCO)C[C@@H]1COC [Example 252, 3-[2-(1-Cyclopropyl-6-fluoro-2-methyl-1,3-benzodiazol-5-yl)ethynyl]-5-[(2-hydroxyethyl)amino]-1-[(3S,5R)-5-(methoxymethyl)-1-(prop-2-enoyl)pyrrolidin-3-yl]pyrazole-4-carboxamide]"
3,≤ 100 nM,"C=CC(=O)N1C[C@@H](n2nc(C#Cc3c(F)cc4c(ncn4C4CC4)c3F)c(C(N)=O)c2NC)C[C@@H]1COC(F)F [Example 156, 1-((3S,5R)-1-Acryloyl-5-((difluoromethoxy)methyl)pyrrolidin-3-yl)-3-((1-cyclopropyl-4,6-difluoro-1H-benzo[d]imidazol-5-yl)ethynyl)-5-(methylamino)-1H-pyrazole-4-carboxamide]"
4,≤ 100 nM,"C=CC(=O)N1C[C@@H](n2nc(C#Cc3cc4ncc(C)cc4cc3Cl)c(C(N)=O)c2NC)C[C@@H]1COC [Example 258, 3-[2-(6-Chloro-3-methylquinolin-7-yl)ethynyl]-1-[(3S,5R)-5-(methoxymethyl)-1-(prop-2-enoyl)pyrrolidin-3-yl]-5-(methylamino)pyrazole-4-carboxamide]"
5,≤ 100 nM,"C#CC(=O)N1CC[C@H](n2nc(C#Cc3cc4ncn(C5CC5)c4cc3F)c(C(N)=O)c2NC)C1 (stereo in doubt) [Example 188, 3-[2-(1-Cyclopropyl-6-fluoro-1,3-benzodiazol-5-yl)ethynyl]-5 (methylamino)-1-[1-(prop-2-ynoyl)pyrrolidin-3-yl]pyrazole-4-carboxamide]"
6,≤ 100 nM,"C=CC(=O)N1C[C@@H](n2nc(C#Cc3cc4ncn(C5CC5)c4cc3F)c(C(N)=O)c2NC)C[C@@H]1COC(F)F [Example 161, 1-((3S,5R)-1-acryloyl-5-((difluoromethoxy)methyl)pyrrolidin-3-yl)-3-((1-cyclopropyl-6-fluoro-1H-benzo[d]imidazol-5-yl)ethynyl)-5-(methylamino)-1H-pyrazole-4-carboxamide]"
7,≤ 100 nM,"C=CC(=O)N1C[C@@H](n2nc(C#Cc3cc4ncn(CC)c4cc3F)c(C(N)=O)c2NC)C[C@@H]1COC [Example 32, 1-((3S,5R)-1-acryloyl-5-(methoxymethyl)pyrrolidin-3-yl)-3-((1-ethyl-6-fluoro-1H-benzo[d]imidazol-5-yl)ethynyl)-5-(methylamino)-1H-pyrazole-4-carboxamide]"
8,≤ 100 nM,"C=CC(=O)N1C[C@@H](n2nc(C#Cc3ccc4nccnc4c3)c(C(N)=O)c2NC)C[C@@H]1COC [Example 64, 1-[(3S,5R)-5-(Methoxymethyl)-1-(prop-2-enoyl)pyrrolidin-3-yl]-5-(methylamino)-3-[2-(quinoxalin-6-yl)ethynyl] pyrazole-4-carboxamide]"
9,≤ 100 nM,"C=CC(=O)N1C[C@@H](n2nc(C#Cc3ccc4c(nc(C)n4CC)c3F)c(C(N)=O)c2NC)C[C@@H]1COC [Example 21, 1-((3S,5R)-1-acryloyl-5-(methoxymethyl)pyrrolidin-3-yl)-3-((1-ethyl-4-fluoro-2-methyl-1H-benzo[d]imidazol-5-yl)ethynyl)-5-(methylamino)-1H-pyrazole-4-carboxamide]"
